Experimental data taken from PubChem BioAssay AID1963856 (Molecular Pharmacology Branch, DTP, NCI, 2024).

System: LG0567-F671-PDC KRAS tumor spheroid viability
Assay: Anticancer human tumor LG0567-F671-PDC patient-derived lung adenocarcinoma cell line growth inhibition [KRAS2]
Settings: spheroids with HUVEC and MSC; for IC50: curve of first compound; for viability, T/C: stronger effect = lower value
In short: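 KRAS-mutant tumor cells were grown as spheroids with HUVEC endothelial cells and human MSCs as stroma. Targeted agents were tested alone and with KRAS pathway inhibitors. Doses started at or near clinical Cmax, or 10 microM, descending half-log.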

[1] = second compound 0.1 µM, first compound 0.0316 µM
[2] = second compound 0.1 µM, first compound 0.1 µM
[3] = second compound 0.1 µM, first compound 0.316 µM
[4] = second compound 0.1 µM, first compound 1 µM
[5] = second compound 0.1 µM, first compound 3.16 µM
[6] = second compound 0.1 µM, first compound 10 µM
[7] = second compound 0.316 µM, first compound 0.0316 µM
[8] = second compound 0.316 µM, first compound 0.1 µM
[9] = second compound 0.316 µM, first compound 0.316 µM
[10] = second compound 0.316 µM, first compound 1 µM
[11] = second compound 0.316 µM, first compound 3.16 µM
[12] = second compound 0.316 µM, first compound 10 µM
[13] = second compound 1 µM, first compound 0.0316 µM
[14] = second compound 1 µM, first compound 0.1 µM
[15] = second compound 1 µM, first compound 0.316 µM
[16] = second compound 1 µM, first compound 1 µM
[17] = second compound 1 µM, first compound 3.16 µM
[18] = second compound 1 µM, first compound 10 µM
[19] = second compound 3.16 µM, first compound 0.0316 µM
[20] = second compound 3.16 µM, first compound 0.1 µM
[21] = second compound 3.16 µM, first compound 0.316 µM
[22] = second compound 3.16 µM, first compound 1 µM
[23] = second compound 3.16 µM, first compound 3.16 µM
[24] = second compound 3.16 µM, first compound 10 µM
[25] = second compound 10 µM, first compound 0.0316 µM
[26] = second compound 10 µM, first compound 0.1 µM
[27] = second compound 10 µM, first compound 0.316 µM
[28] = second compound 10 µM, first compound 1 µM
[29] = second compound 10 µM, first compound 3.16 µM
[30] = second compound 10 µM, first compound 10 µM
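Further: drug exposure lasted seven days after spheroids formed for three days.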
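Wherever viability, T/C is given: 100% = DMSO vehicle control viability.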

Which results are given for `CC1OCC2(CCN(c3cnc(Sc4ccnc(N)c4Cl)c(N)n3)CC2)C1N` (stereo not given) + C=CC(=O)N1CCN(c2nc(=O)n(-c3c(C)ccnc3C(C)C)c3nc(-c4c(O)cccc4F)c(F)cc23)C(C)C1?
IC50 (second compound 0.1 µM): < 31.6 nM; IC50 (second compound 0.316 µM): < 31.6 nM; IC50 (second compound 1 µM): < 31.6 nM; IC50 (second compound 3.16 µM): < 31.6 nM; IC50 (second compound 10 µM): < 31.6 nM; viability, T/C [1]: 17.5%; viability, T/C [2]: 13.5%; viability, T/C [3]: 8.87%; viability, T/C [4]: 5.62%; viability, T/C [5]: 3.47%; viability, T/C [6]: 2.54%; viability, T/C [7]: 17.9%; viability, T/C [8]: 13.2%; viability, T/C [9]: 8.99%; viability, T/C [10]: 4.26%; viability, T/C [11]: 2.66%; viability, T/C [12]: 2.19%; viability, T/C [13]: 16.2%; viability, T/C [14]: 15.9%; viability, T/C [15]: 10.2%; viability, T/C [16]: 4.27%; viability, T/C [17]: 5.62%; viability, T/C [18]: 2.9%; viability, T/C [19]: 16.6%; viability, T/C [20]: 11.6%; viability, T/C [21]: 7.63%; viability, T/C [22]: 4%; viability, T/C [23]: 1.9%; viability, T/C [24]: 3.71%; viability, T/C [25]: 17.6%; viability, T/C [26]: 13.8%; viability, T/C [27]: 8.61%; viability, T/C [28]: 4.3%; viability, T/C [29]: 3.58%; viability, T/C [30]: 3.08%

Which results are given for `Cn1ncnc1[C@H]1c2n[nH]c(=O)c3cc(F)cc(c23)N[C@@H]1c1ccc(F)cc1` + CNCc1ccccc1-c1csc(C(C)Nc2nc(C)nc3cc(OC)c(OC)cc23)c1?
IC50 (second compound 0.1 µM): > 100 nM; IC50 (second compound 0.316 µM): > 100 nM; IC50 (second compound 1 µM): 13.1 nM; IC50 (second compound 3.16 µM): < 0.316 nM; IC50 (second compound 10 µM): < 0.316 nM; viability, T/C (second compound 0.1 µM, first compound 0.000316 µM): 79.2%; viability, T/C (second compound 0.1 µM, first compound 0.001 µM): 82%; viability, T/C (second compound 0.1 µM, first compound 0.00316 µM): 73.4%; viability, T/C (second compound 0.1 µM, first compound 0.01 µM): 70%; viability, T/C [1]: 71.4%; viability, T/C [2]: 74.5%; viability, T/C (second compound 0.316 µM, first compound 0.000316 µM): 64.8%; viability, T/C (second compound 0.316 µM, first compound 0.001 µM): 64.9%; viability, T/C (second compound 0.316 µM, first compound 0.00316 µM): 61.1%; viability, T/C (second compound 0.316 µM, first compound 0.01 µM): 57.6%; viability, T/C [7]: 58%; viability, T/C [8]: 60.6%; viability, T/C (second compound 1 µM, first compound 0.000316 µM): 46.2%; viability, T/C (second compound 1 µM, first compound 0.001 µM): 54.4%; viability, T/C (second compound 1 µM, first compound 0.00316 µM): 53.7%; viability, T/C (second compound 1 µM, first compound 0.01 µM): 55.8%; viability, T/C [13]: 42.2%; viability, T/C [14]: 46.1%; viability, T/C (second compound 3.16 µM, first compound 0.000316 µM): 0.22%; viability, T/C (second compound 3.16 µM, first compound 0.001 µM): 0.9%; viability, T/C (second compound 3.16 µM, first compound 0.00316 µM): 0.17%; viability, T/C (second compound 3.16 µM, first compound 0.01 µM): 0.13%; viability, T/C [19]: 0.2%; viability, T/C [20]: 0.36%; viability, T/C (second compound 10 µM, first compound 0.000316 µM): 0.39%; viability, T/C (second compound 10 µM, first compound 0.001 µM): 0.63%; viability, T/C (second compound 10 µM, first compound 0.00316 µM): 0.39%; viability, T/C (second compound 10 µM, first compound 0.01 µM): 0.11%; viability, T/C [25]: 1.32%; viability, T/C [26]: 0.63%

Which results are given for `COC(=O)c1ccc2c(C(=Nc3ccc(N(C)C(=O)CN4CCN(C)CC4)cc3)c3ccccc3)c(O)[nH]c2c1` + COc1cc2nc(C)nc(NC(C)c3cc(N)cc(C(F)(F)F)c3)c2cc1OC1CCOC1?
IC50 (second compound 0.1 µM): > 10000 nM; IC50 (second compound 0.316 µM): > 10000 nM; IC50 (second compound 1 µM): > 10000 nM; IC50 (second compound 3.16 µM): 4080 nM; IC50 (second compound 10 µM): 1590 nM; viability, T/C [1]: 112%; viability, T/C [2]: 76.2%; viability, T/C [3]: 65.9%; viability, T/C [4]: 85.8%; viability, T/C [5]: 83.8%; viability, T/C [6]: 69.5%; viability, T/C [7]: 60.2%; viability, T/C [8]: 51.6%; viability, T/C [9]: 58.8%; viability, T/C [10]: 71.2%; viability, T/C [11]: 61.7%; viability, T/C [12]: 64.1%; viability, T/C [13]: 72.3%; viability, T/C [14]: 66.3%; viability, T/C [15]: 61.5%; viability, T/C [16]: 71.1%; viability, T/C [17]: 66.4%; viability, T/C [18]: 61.4%; viability, T/C [19]: 73.8%; viability, T/C [20]: 75.2%; viability, T/C [21]: 66.7%; viability, T/C [22]: 71.8%; viability, T/C [23]: 64.2%; viability, T/C [24]: 0.24%; viability, T/C [25]: 78.7%; viability, T/C [26]: 81.1%; viability, T/C [27]: 82.3%; viability, T/C [28]: 79%; viability, T/C [29]: 6.56%; viability, T/C [30]: 1.03%
